Measured values reported in US20260001928A1 (CORTERIA PHARMACEUTICALS, priority 2022, published 2026).
*1 amine or outer side, *2 acyl side, *3 side chain or, on linkers, in order; H or OH if unused. Where a SMILES comes first, the peptide text is derived from it. Side-chain parts run from the residue outwards. [ ]: non-standard residue; d: D form. The star is where a group is joined. C20 diacid = O=C(O)CCCCCCCCCCCCCCCCCCC(=O)*; γGlu = O=C(O)[C@H](CCC(=O)[*:2])N[*:1]; NMeI = CC[C@H](C)[C@H](NC)C(=O)O; Decanoyl = CCCCCCCCCC(=O)*; Pentanoyl = CCCCC(=O)*; AEEA = NCCOCCOCC(=O)O; Aib = CC(C)(N)C(=O)O

Test system: human LAD2 cells
Format: cell-based
In short: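 Mast cell degranulation: cells exposed to peptides for 30 min at final concentrations from 50, 100 or 300 down to 0.1 or 0.001 μM, with 0.5% DMSO where used, in biological duplicates. β-hexosaminidase release was read with a fluorogenic 4-methylumbelliferyl substrate as supernatant/(supernatant + Triton-lysed pellet) × 100. EC50 came from a 4-parameter sigmoidal fit.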

| EC50 [µM] | SMILES |
| --- | --- |
| 88.2 | CCCCC(=O)N[C@H](C(=O)N[C@@H](CC(C)C)C(=O)N[C@@H](CO)C(=O)N[C@@H](CC(C)C)C(=O)N[C@@H](CC(=O)O)C(=O)N[C@@H](C(=O)N1CCC[C@H]1C(=O)N[C@H](C(=O)N[C@@H](CCCCN)C(=O)N[C@@H](CC(C)C)C(=O)N[C@@H](CCCCNC(=O)CC[C@H](NC(=O)CCCCCCCCCCCCCCCCCCC(=O)O)C(=O)O)C(=O)N[C@@H](CCCCN)C(=O)N[C@H](C(=O)N[C@@H](CC(C)C)C(=O)N[C@@H](CC(C)C)C(=O)N[C@@H](CCC(=O)O)C(=O)N[C@@H](CCC(N)=O)C(=O)N[C@@H](CCC(=O)O)C(=O)N[C@@H](CCCCN)C(=O)N[C@@H](CCC(N)=O)C(=O)N[C@@H](CCCCN)C(=O)N[C@@H](CCCCN)C(=O)N[C@@H](CCC(N)=O)C(=O)N[C@@H](CCCNC(=N)N)C(=O)N[C@@H](CCC(=O)O)C(=O)N[C@@H](CCC(N)=O)C(=O)N[C@@H](C)C(=O)N[C@@H](CCC(=O)O)C(=O)N[C@H](C(=O)N[C@@H](CC(N)=O)C(=O)NC(C)(C)C(=O)N[C@@H](CCC(N)=O)C(=O)N[C@H](C(=O)N[C@@H](CC(C)C)C(=O)N[C@@H](C)C(=O)N[C@@H](CCC(N)=O)C(=O)N[C@H](C(N)=O)C(C)C)[C@@H](C)CC)[C@@H](C)O)[C@@H](C)CC)[C@@H](C)CC)C(C)C)C(C)C [Cmpd 219] (Pentanoyl-VLSLD[dV]PIKLK([γGlu-C20 diacid])KILLEQEKQKKQREQAETN[Aib]QILAQV-NH2) |
| > 300 | CCCCCCCCCC(=O)N[C@H](C(=O)N[C@@H](CC(C)C)C(=O)N[C@@H](CO)C(=O)N[C@@H](CC(C)C)C(=O)N[C@@H](CC(=O)O)C(=O)N[C@@H](C(=O)N1CCC[C@H]1C(=O)N[C@H](C(=O)N[C@@H](CCCCN)C(=O)N[C@@H](CC(C)C)C(=O)N[C@@H](CCCCNC(=O)CC[C@H](NC(=O)CCCCCCCCCCCCCCCCCCC(=O)O)C(=O)O)C(=O)N[C@@H](CCCCN)C(=O)N[C@H](C(=O)N[C@@H](CC(C)C)C(=O)N[C@@H](CC(C)C)C(=O)N[C@@H](CCC(=O)O)C(=O)N[C@@H](CCC(N)=O)C(=O)N[C@@H](CCC(=O)O)C(=O)N[C@@H](CCCCN)C(=O)N[C@@H](CCC(N)=O)C(=O)N[C@@H](CCCCN)C(=O)N[C@@H](CCCCN)C(=O)N[C@@H](CCC(N)=O)C(=O)N[C@@H](CCCNC(=N)N)C(=O)N[C@@H](CCC(=O)O)C(=O)N[C@@H](CCC(N)=O)C(=O)N[C@@H](C)C(=O)N[C@@H](CCC(=O)O)C(=O)N[C@H](C(=O)N[C@@H](CC(N)=O)C(=O)NC(C)(C)C(=O)N[C@@H](CCC(N)=O)C(=O)N[C@H](C(=O)N[C@@H](CC(C)C)C(=O)N[C@@H](C)C(=O)N[C@@H](CCC(N)=O)C(=O)N[C@H](C(N)=O)C(C)C)[C@@H](C)CC)[C@@H](C)O)[C@@H](C)CC)[C@@H](C)CC)C(C)C)C(C)C [Cmpd 223] (Decanoyl-VLSLD[dV]PIKLK([γGlu-C20 diacid])KILLEQEKQKKQREQAETN[Aib]QILAQV-NH2) |
| 47.5 | CC[C@H](C)[C@H](NC(C)=O)C(=O)N[C@H](C(=O)N[C@@H](CC(C)C)C(=O)N[C@@H](CO)C(=O)N[C@@H](CC(C)C)C(=O)N[C@@H](CC(=O)O)C(=O)N[C@@H](C(=O)N1CCC[C@H]1C(=O)N[C@H](C(=O)N[C@@H](CCCCN)C(=O)N[C@@H](CC(C)C)C(=O)N[C@@H](CCCCNC(=O)COCCOCCNC(=O)CC[C@H](NC(=O)CCCCCCCCCCCCCCCCCCC(=O)O)C(=O)O)C(=O)N[C@@H](CCCCN)C(=O)N[C@H](C(=O)N[C@@H](CC(C)C)C(=O)N[C@@H](CC(C)C)C(=O)N[C@@H](CCC(=O)O)C(=O)N[C@@H](CCC(N)=O)C(=O)N[C@@H](CCC(=O)O)C(=O)N[C@@H](CCCCN)C(=O)N[C@@H](CCC(N)=O)C(=O)N[C@@H](CCCCN)C(=O)N[C@@H](CCC(=O)O)C(=O)N[C@@H](CCC(N)=O)C(=O)N[C@@H](CCCNC(=N)N)C(=O)N[C@@H](CCC(=O)O)C(=O)N[C@@H](CCC(N)=O)C(=O)N[C@@H](C)C(=O)N[C@@H](CCC(=O)O)C(=O)N[C@H](C(=O)N[C@@H](CC(N)=O)C(=O)NC(C)(C)C(=O)N[C@@H](CCC(N)=O)C(=O)N[C@H](C(=O)N[C@@H](CC(C)C)C(=O)N[C@@H](C)C(=O)N[C@@H](CCC(N)=O)C(=O)N[C@H](C(N)=O)C(C)C)[C@@H](C)CC)[C@@H](C)O)[C@@H](C)CC)[C@@H](C)CC)C(C)C)C(C)C [Cmpd 231] (Ac-IVLSLD[dV]PIKLK([AEEA-γGlu-C20 diacid])KILLEQEKQKEQREQAETN[Aib]QILAQV-NH2) |
| > 300 | CC[C@H](C)[C@H](NC)C(=O)N[C@H](C(=O)N[C@@H](CC(C)C)C(=O)N[C@@H](CO)C(=O)N[C@@H](CC(C)C)C(=O)N[C@@H](CC(=O)O)C(=O)N[C@@H](C(=O)N1CCC[C@H]1C(=O)N[C@H](C(=O)N[C@@H](CCCCN)C(=O)N[C@@H](CC(C)C)C(=O)N[C@@H](CCCCNC(=O)COCCOCCNC(=O)CC[C@H](NC(=O)CCCCCCCCCCCCCCCCCCC(=O)O)C(=O)O)C(=O)N[C@@H](CCCCN)C(=O)N[C@H](C(=O)N[C@@H](CC(C)C)C(=O)N[C@@H](CC(C)C)C(=O)N[C@@H](CCC(=O)O)C(=O)N[C@@H](CCC(N)=O)C(=O)N[C@@H](CCC(=O)O)C(=O)N[C@@H](CCCCN)C(=O)N[C@@H](CCC(N)=O)C(=O)N[C@@H](CCCCN)C(=O)N[C@@H](CCC(=O)O)C(=O)N[C@@H](CCC(N)=O)C(=O)N[C@@H](CCCNC(=N)N)C(=O)N[C@@H](CCC(=O)O)C(=O)N[C@@H](CCC(N)=O)C(=O)N[C@@H](C)C(=O)N[C@@H](CCC(=O)O)C(=O)N[C@H](C(=O)N[C@@H](CC(N)=O)C(=O)NC(C)(C)C(=O)N[C@@H](CCC(N)=O)C(=O)N[C@H](C(=O)N[C@@H](CC(C)C)C(=O)N[C@@H](C)C(=O)N[C@@H](CCC(N)=O)C(=O)N[C@H](C(N)=O)C(C)C)[C@@H](C)CC)[C@@H](C)O)[C@@H](C)CC)[C@@H](C)CC)C(C)C)C(C)C [Cmpd 233] (H-[NMeI]VLSLD[dV]PIKLK([AEEA-γGlu-C20 diacid])KILLEQEKQKEQREQAETN[Aib]QILAQV-NH2) |
| 49.2 | CC[C@H](C)[C@H](NC)C(=O)N[C@H](C(=O)N[C@@H](CC(C)C)C(=O)N[C@@H](CO)C(=O)N[C@@H](CC(C)C)C(=O)N[C@@H](CC(=O)O)C(=O)N[C@@H](C(=O)N1CCC[C@H]1C(=O)N[C@H](C(=O)N[C@@H](CCCCN)C(=O)N[C@@H](CC(C)C)C(=O)N[C@@H](CCCCNC(=O)COCCOCCNC(=O)CC[C@H](NC(=O)CCCCCCCCCCCCCCCCCCC(=O)O)C(=O)O)C(=O)N[C@@H](CCCCN)C(=O)N[C@H](C(=O)N[C@@H](CC(C)C)C(=O)N[C@@H](CC(C)C)C(=O)N[C@@H](CCC(=O)O)C(=O)N[C@@H](CCC(N)=O)C(=O)N[C@@H](CCC(=O)O)C(=O)N[C@@H](CCCCN)C(=O)N[C@@H](CCC(N)=O)C(=O)N[C@@H](CCCCN)C(=O)NC(C)(C)C(=O)N[C@@H](CCC(N)=O)C(=O)N[C@@H](CCCNC(=N)N)C(=O)N[C@@H](CCC(=O)O)C(=O)N[C@@H](CCC(N)=O)C(=O)N[C@@H](C)C(=O)N[C@@H](CCC(=O)O)C(=O)N[C@H](C(=O)N[C@@H](CC(N)=O)C(=O)NC(C)(C)C(=O)N[C@@H](CCC(N)=O)C(=O)N[C@H](C(=O)N[C@@H](CC(C)C)C(=O)N[C@@H](C)C(=O)N[C@@H](CCC(N)=O)C(=O)N[C@H](C(N)=O)C(C)C)[C@@H](C)CC)[C@@H](C)O)[C@@H](C)CC)[C@@H](C)CC)C(C)C)C(C)C [Cmpd 234] (H-[NMeI]VLSLD[dV]PIKLK([AEEA-γGlu-C20 diacid])KILLEQEKQK[Aib]QREQAETN[Aib]QILAQV-NH2) |
